These results are taken from US20260138976A1 (Hoffmann-La Roche Inc., priority 2022, published 2026).

Molecules are shown by their SMILES.

The test system of assay [1] is primary human T-cells. In words: Proliferation assay (5 days, CellTiter-Glo, CD3-stimulated T-cells). Format: cell-based. The note with it: for Emax proliferation (% activation): CD3 condition, normalised to DMSO (neutral) and 20 μM reference compound A1 = 100%; for EC50: Homo sapiens, T-cell, 120 h, CD3-stimulated primary human T-cells, 5 days, CellTiter-Glo, fitted sigmoidal curve, read-out: Tcell Proliferation CD3 EC50. Put shortly: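 Expanded primary human T-cells, 100 k cells/well, were stimulated with plate-coated CD3 antibody (donor-titrated) and given compound in a 5 or 6 pt dose response from 20 μM or 10 μM final top, 0.2% DMSO final. ATP was read by CellTiter-Glo after 5 days. EC50 and Emax were reported as % of 20 μM reference compound A1.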

The subject of assay [2] is primary human T-cells. In words: IL2 secretion measurements (24 h, CD3-stimulated T-cells, PBS counter screen). Format: cell-based. The note with it: for Emax IL2 (% activation): CD3 condition, normalised to DMSO (neutral) and 20 μM reference compound A1 = 100%; for EC50: Homo sapiens, T-cell, CD3-stimulated primary human T-cells, IL2 secretion, fitted sigmoidal curve, read-out: Tcell IL2 CD3 EC50. The method in brief: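 Expanded primary human T-cells (100k/well) were plated on anti-CD3-coated or PBS-only plates with compound in a 5–6 point dose response (top 20 or 10 μM final, 3.333-fold, 0.2% DMSO). IL-2 in 24 h supernatants was quantified by ProQuantum immunoassay or ELISA. Values were normalized to DMSO and 20 μM reference compound A1 (100%), giving EC50 and Emax.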

`CN1CCCC(F)(c2nnc(-c3ccc4c(c3)N(Cc3ccc(-c5ccc(C(F)(F)F)cn5)cc3)C(=O)[C@@H](N)CS4(=O)=O)o2)C1` (stereo partly drawn) [Example 51, (3R)-3-amino-7-[5-(3-fluoro-1-methyl-3-piperidyl)-1,3,4-oxadiazol-2-yl]-1,1-dioxo-5-[[4-[5-(trifluoromethyl)-2-pyridyl]phenyl]methyl]-2,3-dihydro-1λ^6,5-benzothiazepin-4-one]: in the assay on primary human T-cells [1], the “Emax proliferation (% activation)” value was 112 % activation and the EC50 came out at 0.883 µM. In addition, in the assay on primary human T-cells [2], the “Emax IL2 (% activation)” value is on record as 135 % activation and the EC50 turned out to be 2.49 µM.

`N[C@H]1CS(=O)(=O)c2ccc(-c3nnc(C4(CO)CCCO4)o3)cc2N(Cc2ccc(-c3noc(C(F)(F)F)n3)cc2)C1=O` (stereo partly drawn) [Example 54, (3R)-3-amino-7-[5-[2-(hydroxymethyl)tetrahydrofuran-2-yl]-1,3,4-oxadiazol-2-yl]-1,1-dioxo-5-[[4-[5-(trifluoromethyl)-1,2,4-oxadiazol-3-yl]phenyl]methyl]-2,3-dihydro-1λ^6,5-benzothiazepin-4-one]: in the assay on primary human T-cells [1], the “Emax proliferation (% activation)” value came to 94 % activation and the EC50 came to 0.892 µM. In the assay on primary human T-cells [2], the “Emax IL2 (% activation)” value is given as 126 % activation and the EC50 came to 3.34 µM.

For the compound `COC(=O)N1CC(c2nnc(-c3ccc4c(c3)N(Cc3ccc(-c5noc(C(C)(C)C)n5)cc3)C(=O)[C@@H](N)CS4(=O)=O)o2)CC(F)(F)C1` (stereo partly drawn) [Example 56, methyl 3,3-difluoro-5-[5-[(3R)-3-amino-5-[[4-(5-tert-butyl-1,2,4-oxadiazol-3-yl)phenyl]methyl]-1,1,4-trioxo-2,3-dihydro-1λ^6,5-benzothiazepin-7-yl]-1,3,4-oxadiazol-2-yl]piperidine-1-carboxylate], in the assay with primary human T-cells [1], the “Emax proliferation (% activation)” value was found to be 425 % activation and the EC50 was determined as 2.21 µM. Also, in the assay on primary human T-cells [2], the “Emax IL2 (% activation)” value came to 109 % activation and the EC50 was 0.94 µM.

For the compound `COC(=O)N1CC(c2nnc(-c3ccc4c(c3)N(Cc3ccc(-c5ccc(C(F)(F)F)cc5)nc3)C(=O)[C@@H](N)CS4(=O)=O)o2)CC(F)(F)C1` (stereo partly drawn) [Example 57, methyl 3,3-difluoro-5-[5-[(3R)-3-amino-1,1,4-trioxo-5-[[6-[4-(trifluoromethyl)phenyl]-3-pyridyl]methyl]-2,3-dihydro-1λ^6,5-benzothiazepin-7-yl]-1,3,4-oxadiazol-2-yl]piperidine-1-carboxylate], in the assay with primary human T-cells [1], the “Emax proliferation (% activation)” value came to 181 % activation and the EC50 is 0.567 µM. Moreover, in the assay with primary human T-cells [2], the “Emax IL2 (% activation)” value is on record as 100 % activation and the EC50 is 0.652 µM.

For `COC(=O)N1CC2CC(c3nnc(-c4ccc5c(c4)N(Cc4ccc(-c6ccc(C(F)(F)F)cc6)nc4)C(=O)[C@@H](N)CS5(=O)=O)o3)(C2)C1` [Example 58, methyl 1-[5-[(3R)-3-amino-1,1,4-trioxo-5-[[6-[4-(trifluoromethyl)phenyl]-3-pyridyl]methyl]-2,3-dihydro-1λ^6,5-benzothiazepin-7-yl]-1,3,4-oxadiazol-2-yl]-3-azabicyclo[3.1.1]heptane-3-carboxylate], in the assay with primary human T-cells [1], the “Emax proliferation (% activation)” value amounted to 114 % activation and the EC50 came out at 0.531 µM. Also, in the assay on primary human T-cells [2], the “Emax IL2 (% activation)” value is recorded as 505 % activation and the EC50 came out at 4.71 µM.

As for `N#CC1(c2nnc(-c3ccc4c(c3)N(Cc3ccc(-c5ccc(C(F)(F)F)cn5)cc3)C(=O)[C@@H](N)CS4(=O)=O)o2)CC1` [Example 62, 1-[5-[(3R)-3-amino-1,1,4-trioxo-5-[[4-[5-(trifluoromethyl)-2-pyridyl]phenyl]methyl]-2,3-dihydro-1λ^6,5-benzothiazepin-7-yl]-1,3,4-oxadiazol-2-yl]cyclopropane-carbonitrile], in the assay on primary human T-cells [1], the “Emax proliferation (% activation)” value worked out at 101 % activation and the EC50 was 1.57 µM. In addition, in the assay with primary human T-cells [2], the “Emax IL2 (% activation)” value was found to be 110 % activation and the EC50 came out at 2.11 µM.

On to `CCOC(F)(c1nnc(-c2ccc3c(c2)N(Cc2ccc(-c4noc(C(F)(F)F)n4)cc2)C(=O)[C@@H](N)CS3(=O)=O)o1)C(F)(F)F` (stereo partly drawn) [Example 64, (3R)-3-amino-7-[5-(1-ethoxy-1,2,2,2-tetrafluoro-ethyl)-1,3,4-oxadiazol-2-yl]-1,1-dioxo-5-[[4-[5-(trifluoromethyl)-1,2,4-oxadiazol-3-yl]phenyl]methyl]-2,3-dihydro-1λ^6,5-benzothiazepin-4-one], for which, in the assay with primary human T-cells [1], the “Emax proliferation (% activation)” value is given as 132 % activation and the EC50 is 0.0208 µM. For the same compound, in the assay on primary human T-cells [2], the “Emax IL2 (% activation)” value is on record as 543 % activation and the EC50 turned out to be 0.889 µM.

`N[C@H]1CS(=O)(=O)c2ccc(-c3nnc(N4CCC(F)(F)CC4)o3)cc2N(Cc2ccc(-c3noc(C(F)(F)F)n3)cc2)C1=O` [Example 68, (3R)-3-amino-7-[5-(4,4-difluoro-1-piperidyl)-1,3,4-oxadiazol-2-yl]-1,1-dioxo-5-[[4-[5-(trifluoromethyl)-1,2,4-oxadiazol-3-yl]phenyl]methyl]-2,3-dihydro-1λ^6,5-benzothiazepin-4-one]: in the assay on primary human T-cells [1], the “Emax proliferation (% activation)” value is listed as 104 % activation and the EC50 stood at 0.0261 µM. In the assay with primary human T-cells [2], the “Emax IL2 (% activation)” value amounted to 351 % activation and the EC50 was found to be 1.16 µM.

Regarding `N[C@H]1CS(=O)(=O)c2ccc(-c3nnc(N4CCOC(F)(F)C4)o3)cc2N(Cc2ccc(-c3nnc(C(F)(F)F)o3)cc2)C1=O` [Example 80], in the assay on primary human T-cells [1], the “Emax proliferation (% activation)” value is given as 130 % activation and the EC50 came to 0.402 µM. In addition, in the assay on primary human T-cells [2], the “Emax IL2 (% activation)” value was found to be 360 % activation and the EC50 is 3.54 µM.

`CC(C)(C#N)c1nnc(-c2cc3c(cc2F)S(=O)(=O)C[C@H](N)C(=O)N3Cc2ccc(-c3ccc(C(F)(F)F)cn3)cc2)o1` [Example 88, 2-[5-[(3R)-3-amino-8-fluoro-1,1,4-trioxo-5-[[4-[5-(trifluoromethyl)-2-pyridyl]phenyl]methyl]-2,3-dihydro-1λ^6,5-benzothiazepin-7-yl]-1,3,4-oxadiazol-2-yl]-2-methyl-propanenitrile]: in the assay on primary human T-cells [1], the “Emax proliferation (% activation)” value was 106 % activation and the EC50 worked out at 0.0451 µM. In the assay on primary human T-cells [2], the “Emax IL2 (% activation)” value was 121 % activation and the EC50 was 0.264 µM.

Take `CC(C)(C)c1nnc(-c2ccc3c(c2)N(Cc2ccc(-n4nnc(C(F)(F)F)n4)cc2)C(=O)[C@@H](N)CS3(=O)=O)o1` [Example 90, (3R)-3-amino-7-(5-tert-butyl-1,3,4-oxadiazol-2-yl)-1,1-dioxo-5-[[4-[5-(trifluoromethyl)tetrazol-2-yl]phenyl]methyl]-2,3-dihydro-1λ^6,5-benzothiazepin-4-one]: in the assay on primary human T-cells [1], the “Emax proliferation (% activation)” value was 152 % activation and the EC50 is 0.344 µM. Also, in the assay on primary human T-cells [2], the “Emax IL2 (% activation)” value was 159 % activation and the EC50 is 1.01 µM.

In the case of `Cn1nc(C(F)(F)F)cc1-c1ccc(CN2C(=O)[C@@H](N)CS(=O)(=O)c3ccc(-c4nnc(C(C)(C)C)o4)cc32)cc1` [Example 92], in the assay with primary human T-cells [1], the “Emax proliferation (% activation)” value is recorded as 170 % activation and the EC50 was 0.835 µM. In the assay on primary human T-cells [2], the “Emax IL2 (% activation)” value came to 157 % activation and the EC50 turned out to be 2 µM.

With `CC(C)(C)c1nnc(-c2ccc3c(c2)N(Cc2ccc(-c4ncc(C(F)(F)F)o4)cc2)C(=O)[C@@H](N)CS3(=O)=O)o1` [Example 93, (3R)-3-amino-7-(5-tert-butyl-1,3,4-oxadiazol-2-yl)-1,1-dioxo-5-[[4-[5-(trifluoromethyl)oxazol-2-yl]phenyl]methyl]-2,3-dihydro-1λ^6,5-benzothiazepin-4-one], in the assay on primary human T-cells [1], the “Emax proliferation (% activation)” value came out at 104 % activation and the EC50 amounted to 0.12 µM. Moreover, in the assay on primary human T-cells [2], the “Emax IL2 (% activation)” value was 279 % activation and the EC50 was determined as 0.202 µM.

`NC(c1nnc(-c2ccc3c(c2)N(Cc2ccc(-c4noc(C(F)(F)F)n4)cc2)C(=O)[C@@H](N)CS3(=O)=O)o1)C(F)(F)F` (some centres unmarked) [Example 94]: in the assay with primary human T-cells [1], the “Emax proliferation (% activation)” value is recorded as 42 % activation and the EC50 is above 10 µM. Further, in the assay with primary human T-cells [2], the “Emax IL2 (% activation)” value was 76 % activation and the EC50 was 2.66 µM.

As to `CCC(O)(c1nnc(-c2ccc3c(c2)N(Cc2ccc(-c4noc(C(F)(F)F)n4)cc2)C(=O)[C@@H](N)CS3(=O)=O)o1)C(F)(F)F` (some centres unmarked) [Example 95], in the assay on primary human T-cells [1], the “Emax proliferation (% activation)” value is recorded as 104 % activation and the EC50 came to 1.64 µM. Moreover, in the assay with primary human T-cells [2], the “Emax IL2 (% activation)” value worked out at 172 % activation and the EC50 stood at 0.807 µM.

For the compound `CC(O)(c1nnc(-c2ccc3c(c2)N(Cc2ccc(-c4noc(C(F)(F)F)n4)cc2)C(=O)[C@@H](N)CS3(=O)=O)o1)C(F)(F)F` (stereo partly drawn) [Example 96, (3R)-3-amino-1,1-dioxo-7-[5-(2,2,2-trifluoro-1-hydroxy-1-methyl-ethyl)-1,3,4-oxadiazol-2-yl]-5-[[4-[5-(trifluoromethyl)-1,2,4-oxadiazol-3-yl]phenyl]methyl]-2,3-dihydro-1λ^6,5-benzothiazepin-4-one], in the assay on primary human T-cells [1], the “Emax proliferation (% activation)” value came out at 103 % activation and the EC50 is 0.175 µM. Moreover, in the assay on primary human T-cells [2], the “Emax IL2 (% activation)” value is on record as 232 % activation and the EC50 stood at 1.36 µM.

As for `CC(C)(C#N)c1nnc(-c2ccc3c(c2)N(Cc2ccc(-c4cnc(C(F)(F)F)nc4)cc2)C(=O)[C@@H](N)CS3(=O)=O)o1` [Example 100], in the assay with primary human T-cells [1], the “Emax proliferation (% activation)” value came out at 96 % activation and the EC50 amounted to 1.9 µM. Besides, in the assay with primary human T-cells [2], the “Emax IL2 (% activation)” value is reported as 100 % activation and the EC50 amounted to 3.22 µM.
